What was measured:
[1] = tested on: CHEM-5; test: In vitro cytotoxicity, MTT assay; type: cell-based, human; settings: CHEM-5, MTT assay, 72 h
Protocol: (§1) page 7: The gold content of the nanocomposites was determined by dissolving the nanocomposites in conc. HNO3 / conc. HCl solution mixture (9:1, v/v; 30 µL), followed by ICP-MS analysis. […] The nanocomposite (10 µL) was dissolved in acetonitrile (90 µL), and subjected to gentle shaking overnight. The solution mixture was then dried under vacuum, and re- dispersed in 0.1 vol% formic acid in water/acetonitrile (7/3, v/v; 1 mL) solution mixture. […] The mobile phase was 0.1 vol% formic acid in water/acetonitrile (7:3, v/v) solution mixture. […] The cells were then treated with a serial concentration of gold(III) complexes and incubated at 37 °C under a 5% CO2 atmosphere for 72 h. […] After incubation for 72 h, MTT in PBS solution (5 mg/mL, 10 μL) was added to each well. The plates were incubated at 37 °C under a 5% CO2 atmosphere for another 4 h, and the cells were lysed by the addition of SDS solution (10%, w/w) with 0.01 M HCl (100 μL). After incubation in dark at 37 °C overnight, the cell viability after treatment was determined by a microtitre plate reader monitoring at the absorbance at 590 nm, P.7 page 8: which reflected the amount of blue formazan formed. IC50 values were then determined by CompuSyn S6 from three independent measurements. Study on the release of hydrolyzed product from 1 and 2 in aqueous buffer solutions by ICP-MS. […] At a predetermined time, an aliquot of solution was removed and dissolved in HNO3/HCl solution mixture (9:1, v/v; volume of aliquot: volume of acid mixture = 1:3). The solution mixture was heated at 65 °C with shaking overnight, and the gold content was determined by ICP-MS from three independent aliquots. […] 37 °C for 24 h. […] Analysis of cell lysate of HCT116 cells treated with complexes 1 and 3 by UPLC- QTOF-MS. […] All the cells were harvested, washed with PBS solution for three times and dispersed in ice-cold water. The cell suspension was then added to ice-cold acetonitrile (1:3, v/v), vortexed for 5 min, and centrifuged at 10,000 rpm at 4 °C. The supernatant was collected, dried under vacuum and the solid was re-dissolved in acetonitrile (HPLC grade) for UPLC- QTOF-MS experiments. The mobile phase was a mixture of 0.1% formic acid in water (phase A) and 0.1% formic acid in acetonitrile (phase B). […] P.46

[2] = tested on: L02; test: In vitro cytotoxicity, MTT assay; type: cell-based, human; settings: 72 h
Protocol: as §1

[3] = Hydrolysis in aqueous buffer solutions by 1H NMR; type: physicochemical; settings: 24 h, 37 °C; pH 4 (1), pH 4 or 7.4 (2)
[4] = tested on: HCT116 cells; test: Time-dependent induction of apoptosis, Caspase-3/7 Green ReadyProbes fluorescence microscopy; type: cell-based, human; settings: HCT116, 2 μM, Caspase-3/7 Green Reagent
Protocol: B from 20.1 to 25 min and returned to initial conditions and equilibrated for 3 minutes.
The flow rate was 0.4 mL/min and the injection volume was 2 µL. The UPLC-QTOF-MS chromatograms of 1, 3, 4 and solvent control in acetonitrile were also recorded for the interpretation of UPLC-QTOF-MS chromatograms of the cell lysate.
Cellular uptake experiments. HCT116, A2780 and A2780adr (2×10 5 cells), and MIHA and NCM460 (3.5×10 5 cells) cells were grown on 6-well plates at 37 °C under an atmosphere of 5% CO2 for 48 h. The culture medium was then removed, washed with PBS solution, and incubated with culture medium containing nanostructures of 1 […]
Au1a (2 µM; with 1 vol% DMSO). At a predetermined time, the culture medium was removed and washed with PBS solution for three times. The cells were then harvested and dispersed in ice-cold water. An aliquot of the cell suspension was subjected to Bio-rad protein assay with a microtitre plate reader at the absorbance at 595 nm, using bovine serum albumin as the protein standard. […] The solution mixture was heated at 65 °C with shaking overnight, and the gold content was determined by ICP-MS. […]
then removed and washed with PBS solution. The cells were then incubated with culture medium containing nanostructures of 1 (2 µM) and CellEvent Caspase-3/7 Green ReadyProbes Reagent (30 µL), or Au1a (2 µM; with 1 vol% DMSO) and CellEvent Caspase-3/7 Green ReadyProbes Reagent (30 µL) at 37 °C under an atmosphere of 5% CO2. Fluorescence images at different time intervals were recorded by the fluorescence microscope without washing the cells. […]
once every 2–3 days. The tumor volume was calculated by the equation: Volume (mm3) = l×w2/2, where l and w were the length and width of the tumor. At the end of the treatment, the nude mice were sacrificed and the tumor weight was measured. […]
At a predetermined time, the culture medium was removed and washed with PBS solution for three times. […] An aliquot of the cell suspension was subjected to Bio-rad protein assay with a microtitre plate reader at the absorbance at 595 nm, using bovine serum albumin as the protein standard. […]

| Molecule | IC50 [1] | IC50 [2] | change in 1H NMR spectra after incubation in buffer [3] | incubation time at which induction of apoptosis was apparent [4] |
| --- | --- | --- | --- | --- |
| COC(=O)c1ccc(C2=C3C=CC(=N3)C(c3ccccc3)=c3ccc4[n]3[Au+][n]3c(ccc32)C(c2ccccc2)=C2C=CC(=N2)C=4c2ccccc2)cc1.[Cl-] [Compound 3, [Au(TPP–COOCH3)]^+] | 3.5 ± 0.03 µM | 0.2 ± 0.05 µM |  |  |
| [Au(TPP–COO–PEG5000–OCH3)]Cl [Compound 1] | 11.3 ± 0.05 µM | 3.8 ± 0.1 µM | disappearance of peaks from protons of –COOCH 2CH 2– | 15 h |
| [Au(TPP–CONH–PEG5000–OCH3)]Cl [Compound 2] |  |  | no observable change in the NMR spectra |  |
| C1=Cc2nc1c(-c1ccccc1)c1ccc([n-]1)c(-c1ccccc1)c1nc(c(-c3ccccc3)c3ccc([n-]3)c2-c2ccccc2)C=C1.[Au+3].[Cl-] [Au1a, [Au(TPP)]Cl, reference compound] |  |  |  | 12 h |
